According to article PMC8710297, “Identification of potent SENP1 inhibitors that inactivate SENP1/JAK2/STAT signaling pathway and overcome platinum drug resistance in ovarian cancer” (Clinical and Translational Medicine, 2021):
In brackets after ≈: the same amount, converted by molar mass.

Experiment: Water solubility determination (HPLC)
Format: physicochemical
Settings: thermodynamic from solid, ultra-pure water, room temperature
Procedure: at room tem p eratu re fo r 2 h. After centrifu gation at 3000×g fo r 10 min, the supernatant wa s transferred into a sample vial and dried with Sp ee d vac (Fish er Scientific). So lu ti on s fo r standards were prepared by using a series of different concentrations of ursolic acid (i.e., 0.1, 0.5, 1.0, 2. 0, 5.0 ug /mL in methanol ). Ea c h sample was in jec ted fo r analysis by liq uid chromatography‐tan dem mass spectrometry (UPLC‐MS/MS) with multip le react io n monitor ing (MRM) mode. (2) UPLC‐MS/MS analysis Sa m ples were analyzed wi t h Acquity UPLC syste m (Waters) cou ple d wi t h a Q‐TRAP 6500 mass spectrometer (Sciex). Spe cifically, 5 μL of each sample wa s loaded onto a C18 column (Waters Acquity UPLC BEH C18 1.7μm, 2.1mm x 50 mm). […]
Mass spectra were recorded with Analyst TF 1.6.2 software in th e MRM mode (Q1 mass: 455 Da, Q3 mass:455.1 Da , Time:100 ms, CE: ‐20, DP: ‐50: EP:‐ 7, CXP: ‐12). (3) Data analysis: Data files we re analyzed with quantitated with the “Quantitation Method” in th e An al yst software […]
slid e at a flow ra te of 25 μL/ min wi th 110 s contac t time and 250 s dissociation time. Th e background re s p o ns e was recorded using th e refere nce flow channel, and the background data wa s subtracted from the data fro m each injection sample. […]

C[C@H]1[C@H](C)CC[C@]2(C(=O)NCC(=O)N(C)CCO)CC[C@]3(C)C(=CC[C@@H]4[C@@]5(C)CC[C@H](O)C(C)(C)[C@@H]5CC[C@]43C)[C@H]12 [UAMMC9]
solubility at 24 h: 39.7 µg/mL (≈ 69.5 µM)
